The test system of assay [1] is L1210. The assay can be described thus: Cytotoxicity against mouse L1210 cells after 24 hrs by MTT assay. It is filed as functional, cell-based. The conditions noted are these: L1210, 24 h.
The subject of assay [2] is Calf thymus DNA. The assay can be described thus: Binding affinity to calf thymus DNA assessed as change in melting temperature treated with (5-amino-1-(chloromethyl)-1H-benzo[e]indol-3(2H)-yl)(5-(2-(dimethylamino)ethoxy)-1H-indol-2-yl)methanone at 0.2 equiv. per base pair at pH 7 after 1 hr by spectrometric analysis. Format: nucleic-acid assay. The settings on record: Bos taurus.

Assay [3] concerns LNCaP. The assay is described as follows: Cytotoxicity against human LNCAP cells assessed as inhibition of cell proliferation by MTS assay. It is filed as functional, cell-based.
The test system of assay [4] is L1210. The assay can be described thus: Cytotoxicity against mouse L1210 cells. Format: functional, cell-based.
Assay [5] has as its system Calf thymus DNA. The assay can be described thus: Binding affinity to calf thymus DNA assessed as change in melting temperature at 6.9 DNA to compound ratio at pH 7.2 by spectrophotometric analysis. The settings on record: Bos taurus. Format: nucleic-acid assay.
The subject of assay [6] is L1210. The assay is described as follows: Cytotoxicity against mouse L1210 cells after 3 days by coulter counter analysis. It is filed as functional, cell-based. The conditions noted are these: L1210, 72 h.

SMILES strings stand for the structures.

A word on the IC50: it is the concentration that gives 50% inhibition. In turn, `COc1cc2[nH]c(C(=O)N3C[C@H]4C[C@@]45C3=CC(=O)c3[nH]c(C(=O)N4CCc6c4c(O)c(OC)c4[nH]c(C(=O)SC)cc64)cc35)cc2cc1O` yielded an IC50 in assay [1] of 5 pM. For orientation: ΔTm means the change in melting temperature against a reference sample. `CN(C)CCOc1ccc2[nH]c(C(=O)N3CC4CC45C3=CC(=N)c3ccccc35)cc2c1` (configuration not stated): in assay [2], the ΔTm came out at 13 °C. Take `CN(C)CCOc1ccc2[nH]c(C(=O)N3CC(CCl)c4c3cc(NC(=O)OC(C)(C)C)c3ccccc43)cc2c1` (configuration not stated): the IC50 in assay [3] was determined as 218000 pM. Compound `COC(=O)c1cc2c([nH]1)C(=O)C=C1N(C(=O)c3cc4cc(OC)c(OC)c(OC)c4[nH]3)CC3CC123` (configuration not stated) [DUOCARMYCIN SA] displayed an IC50 in assay [4] of 10 pM. Take `COc1c(O)c2c(c3cc(C(=O)N4CCc5c4c(O)c(OC)c4[nH]c(C(=O)N6C[C@H]7C[C@@]78C6=CC(=O)c6[nH]cc(C)c68)cc54)[nH]c13)CCN2C(N)=O` [(+)-CC-1065]: the ΔTm in assay [5] was 31 °C. Besides, the IC50 in assay [6] was 24 pM. With `CN(C)CCOc1ccc2[nH]c(C(=O)N3CC(CCl)c4c3cc(N)c3ccccc43)cc2c1` (configuration not stated), in assay [3], the IC50 turned out to be 18000 pM.
